{"source": "patent US20210113498A1", "about": "“TOPICAL AND TRANSDERMAL DELIVERY OF AN IRON CHELATOR TO PREVENT AND TREAT CHRONIC WOUNDS” (TAUTONA GROUP IP HOLDING COMPANY, L.L.C., priority 2018, published 2021)", "key": {"[1]": {"assay_type": "in vitro ADME, human", "from_the_text": "To study the capacity of an intradermal patch comprising an iron chelator, such as DFO, to deliver DFO into human dermis, a vertical Franz Diffusion Cell (FIG. 8) was used to evaluate the DIDP. Full thickness human skin samples obtained under Stanford University IRB approval were mounted between the two compartments of the diffusion cell with the stratum corneum facing the donor compartment. The DIDP was applied and isotonic phosphate buffer solution agitated with a magnetic stirrer and maintained at 37° C. by a circulating water jacket. Every hour, over the course of 15 hours, skin samples were removed, washed with phosphate buffer saline (PBS) and dried with an absorbent towel. The skin samples were frozen at −20° C. and cut with a microtome into 20 μm sections. The samples were analyzed for drug content spectrophotometrically at 560 nm (Shimadzu, Japan) and the relative DFO concentration was determined. Skin biopsies of the fresh full thickness skin samples used in the Franz cell experiment after DIDP application were processed for histology. Intracellular DFO-iron aggregates were made visible using ferrocyanide staining via a modified Prussian blue reaction as described previously. Skin samples were incubated overnight in 7% potassium ferrocyanide dissolved in 3% hydrochloric acid. […]"}, "HbSS BERK mice": {"system": "HbSS BERK mice", "test": "Excisional wound healing in sickle cell mice", "assay_type": "in vivo, mouse", "settings": "6 mm full-thickness excisional wounds, daily treatment, mean±s.e.m., in days", "from_the_text": "The proposed mechanism for healing was investigated using a sickle cell mouse study (Rodrigues et al. publication pending). In this study, transgenic sickle cell mouse model, HbSS-BERK, were used to determine the effectiveness of DIDP. […] They recapitulate human sickle cell disease including hemolysis, reticulocytosis, anemia, extensive organ damage, shortened life span and pain.\nMice. […] These mice simulate human sickle cell disease including hemolysis, reticulocytosis, anemia, extensive organ damage, shortened life span and pain26-28. HbSS-BERK mice were bred and phenotyped for human sickle hemoglobin. Genotyping for the knockout and hemoglobin transgenes was performed. Control mice (wild type) on a C57/Bl6 background [#000664] were also obtained.\nDFO delivery device. A transdermal delivery system was used to deliver DFO into the dermal tissue of the mice. […]\nExcisional wound healing. Five-month old male HbSS BERK and wild type mice were subjected to a quantitative and reproducible model of excisional wounding using an established protocol described in Galioano et al., Wound Repair Regen 12, 485-492, doi:10.1111/j.1067-1927.2004.12404.x (2004). […]\nWound treatment. […] Wound area was measured using Image J software (NIH). […]"}, "[2]": {"settings": "systemic delivery (subcutaneous, intravenous, intramuscular) within approved dose limits; cited from earlier work"}}}
{"molecule": "CC(=O)N(O)CCCCCNC(=O)CCC(=O)N(O)CCCCCNC(=O)CCC(=O)N(O)CCCCCN", "note": "[DFO, deferoxamine]", "values": [{"measurement": "Human skin permeation (stratum corneum / dermal accumulation)", "setting": "[1]", "result": "no permeation of the stratum corneum"}, {"measurement": "Time to complete wound closure", "setting": "HbSS BERK mice", "result": "14.5 ± 0.6268"}, {"measurement": "Toxicity in adult or pediatric patients", "setting": "[2]", "result": "no evidence of toxicity"}]}
